Read-outs that look alike come from different tables or passages of the source.
Tests used:
[1] = tested on: Aspergillus niger (CMCC 98003); assay: Time kill study, Example 33 (0 to 5 min); format: cell-based; settings: 1×MIC
Procedure, shortened: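 Viable counts (Log10 CFU/mL) were recorded at each time point. Equal volumes of strain suspension and compound solution were combined following CLSI guidelines, then aliquots were diluted, plated on agar and incubated 24 to 48 hrs before colony counting.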

[2] = tested on: Staphulococcus aureus (ATCC 29213); assay: Minimum inhibitory concentration (MIC) assay, Example 33; format: cell-based, Staphylococcus aureus; settings: Staphylococcus aureus
Procedure, shortened: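 Broth microdilution MIC per CLSI guidelines, in CAMHB with serial 2-fold compound dilutions. Bacterial inocula were adjusted to a 0.5 McFarland standard, then diluted 1:100 and 1:2 in the wells. Plates were incubated at 35 °C, and the MIC was read according to CLSI.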

[3] = tested on: Aspergillus niger; assay: Extended time kill study, Example 34 (0 to 24 h); format: cell-based
Protocol: (§1) Time kill studies. Strain suspensions were prepared as described above for the MIC test, and strain suspensions and compound solutions were mixed in the same volume. Samples were removed at specified times including 0 min, 30 sec, 1 min and 5 mins, were diluted in the test medium and streaked on agar. Colonies were counted after 24 to 48 hrs of incubation.
(§2) The time kill studies of Example 33 were extended for five compounds (Nex-59, Nex-60, Nex-61, Nex-62, and Nex-88) using the same methods at longer time periods and at higher multiples of MIC. Nex-88 is a code number for DDAIP.HCl from a different supplier.

[4] = tested on: Pseudomonas aeruginosa; assay: Extended time kill study, Example 34 (0 to 24 h); format: cell-based
Protocol: as §1, §2

[5] = tested on: Candida albicans; assay: Extended time kill study, Example 34 (0 to 24 h); format: cell-based
Protocol: as §1, §2

- MIC ([2]; ATCC29213, Table 19 summary, read-out: MIC): 50 µg/mL
- MIC ([2]; ATCC29213, n = 1, read-out: MIC S. aureus): 50 µg/mL
- MIC ([2]; ATCC29213, n = 2, read-out: MIC S. aureus): 50 µg/mL
- melting point: 134 to 139 °C
SMILES: CCCCCCCCCCCCOC(=O)C(C)NCCO.Cl (centres unmarked) [Nex-61, Dodecyl 2-((2-hydroxyethyl)amino)propanoate hydrochloride]
- Viable counts, Aspergillus niger time kill study ([1]; 0.5 min): 5.30 Log10 CFU/mL
- Viable counts, Aspergillus niger time kill study ([1]; 1 min): 5.16 Log10 CFU/mL
- Viable counts, Aspergillus niger time kill study ([1]; 5 min): 5.11 Log10 CFU/mL
- Viable counts, Aspergillus niger time kill study ([1]; time 0): 5.36 Log10 CFU/mL
- Viable counts in Log10 CFU/mL ([3]; 1 × MIC, 1 h): 5.48 Log10 CFU/mL
- Viable counts in Log10 CFU/mL ([3]; 1 × MIC, 2 h): 5.36 Log10 CFU/mL
- Viable counts in Log10 CFU/mL ([3]; 1 × MIC, 4 h): 5.18 Log10 CFU/mL
- Viable counts in Log10 CFU/mL ([3]; 1 × MIC, 6 h): 4.95 Log10 CFU/mL
- Viable counts in Log10 CFU/mL ([3]; 1 × MIC, 24 h): 4.48 Log10 CFU/mL
- Viable counts in Log10 CFU/mL ([3]; 1 × MIC, 0 h): 5.28 Log10 CFU/mL
- Viable counts in Log10 CFU/mL ([3]; 2 × MIC, 1 h): 5.52 Log10 CFU/mL
- Viable counts in Log10 CFU/mL ([3]; 2 × MIC, 2 h): 5.57 Log10 CFU/mL
- Viable counts in Log10 CFU/mL ([3]; 2 × MIC, 4 h): 4.48 Log10 CFU/mL
- Viable counts in Log10 CFU/mL ([3]; 2 × MIC, 6 h): 4.90 Log10 CFU/mL
- Viable counts in Log10 CFU/mL ([3]; 2 × MIC, 24 h): 3 Log10 CFU/mL
- Viable counts in Log10 CFU/mL ([3]; 2 × MIC, 0 h): 5.33 Log10 CFU/mL
- Viable counts in Log10 CFU/mL ([3]; 4 × MIC, 1 h): 5.34 Log10 CFU/mL
- Viable counts in Log10 CFU/mL ([3]; 4 × MIC, 2 h): 5.41 Log10 CFU/mL
- Viable counts in Log10 CFU/mL ([3]; 4 × MIC, 4 h): 5.28 Log10 CFU/mL
- Viable counts in Log10 CFU/mL ([3]; 4 × MIC, 6 h): 4.95 Log10 CFU/mL
- Viable counts in Log10 CFU/mL ([3]; 4 × MIC, 24 h): <2 Log10 CFU/mL
- Viable counts in Log10 CFU/mL ([3]; 4 × MIC, 0 h): 5.26 Log10 CFU/mL
- Viable counts, Pseudomonas aeruginosa time kill study ([4]; 1 × MIC, 1 h): <1 Log10 CFU/mL
- Viable counts, Pseudomonas aeruginosa time kill study ([4]; 1 × MIC, 2 h): <1 Log10 CFU/mL
- Viable counts, Pseudomonas aeruginosa time kill study ([4]; 1 × MIC, 4 h): <1 Log10 CFU/mL
- Viable counts, Pseudomonas aeruginosa time kill study ([4]; 1 × MIC, 6 h): <1 Log10 CFU/mL
- Viable counts, Pseudomonas aeruginosa time kill study ([4]; 1 × MIC, 24 h): <1 Log10 CFU/mL
- Viable counts, Pseudomonas aeruginosa time kill study ([4]; 1×MIC, time 0): 5.28 Log10 CFU/mL
- Viable counts, Pseudomonas aeruginosa time kill study ([4]; 2 × MIC, 1 h): <1 Log10 CFU/mL
- Viable counts, Pseudomonas aeruginosa time kill study ([4]; 2 × MIC, 2 h): <1 Log10 CFU/mL
- Viable counts, Pseudomonas aeruginosa time kill study ([4]; 2 × MIC, 4 h): <1 Log10 CFU/mL
- Viable counts, Pseudomonas aeruginosa time kill study ([4]; 2 × MIC, 6 h): <1 Log10 CFU/mL
- Viable counts, Pseudomonas aeruginosa time kill study ([4]; 2 × MIC, 24 h): <1 Log10 CFU/mL
- Viable counts, Pseudomonas aeruginosa time kill study ([4]; 2 × MIC, time 0): 5.29 Log10 CFU/mL
- Viable counts, Pseudomonas aeruginosa time kill study ([4]; 4 × MIC, 1 h): <1 Log10 CFU/mL
- Viable counts, Pseudomonas aeruginosa time kill study ([4]; 4 × MIC, 2 h): <1 Log10 CFU/mL
- Viable counts, Pseudomonas aeruginosa time kill study ([4]; 4 × MIC, 4 h): <1 Log10 CFU/mL
- Viable counts, Pseudomonas aeruginosa time kill study ([4]; 4 × MIC, 6 h): <1 Log10 CFU/mL
- Viable counts, Pseudomonas aeruginosa time kill study ([4]; 4 × MIC, 24 h): <1 Log10 CFU/mL
- Viable counts, Pseudomonas aeruginosa time kill study ([4]; 4 × MIC, time 0): 5.26 Log10 CFU/mL
- Viable counts in Log10 CFU/mL ([5]; 1 × MIC, 1 h): 5.37 Log10 CFU/mL
- Viable counts in Log10 CFU/mL ([5]; 1 × MIC, 2 h): 5.37 Log10 CFU/mL
- Viable counts in Log10 CFU/mL ([5]; 1 × MIC, 4 h): 5.32 Log10 CFU/mL
- Viable counts in Log10 CFU/mL ([5]; 1 × MIC, 6 h): 5.54 Log10 CFU/mL
- Viable counts in Log10 CFU/mL ([5]; 1 × MIC, 24 h): >6 Log10 CFU/mL
- Viable counts in Log10 CFU/mL ([5]; 1 × MIC, 0 h): 5.43 Log10 CFU/mL
- Viable counts in Log10 CFU/mL ([5]; 2 × MIC, 1 h): <3 Log10 CFU/mL
- Viable counts in Log10 CFU/mL ([5]; 2 × MIC, 2 h): <3 Log10 CFU/mL
- Viable counts in Log10 CFU/mL ([5]; 2 × MIC, 4 h): <2.70 Log10 CFU/mL
- Viable counts in Log10 CFU/mL ([5]; 2 × MIC, 6 h): <2.70 Log10 CFU/mL
- Viable counts in Log10 CFU/mL ([5]; 2 × MIC, 24 h): >6 Log10 CFU/mL
- Viable counts in Log10 CFU/mL ([5]; 2 × MIC, 0 h): 5.48 Log10 CFU/mL
- Viable counts in Log10 CFU/mL ([5]; 4 × MIC, 1 h): <3 Log10 CFU/mL
- Viable counts in Log10 CFU/mL ([5]; 4 × MIC, 2 h): <3 Log10 CFU/mL
- Viable counts in Log10 CFU/mL ([5]; 4 × MIC, 4 h): <2.70 Log10 CFU/mL
- Viable counts in Log10 CFU/mL ([5]; 4 × MIC, 6 h): <2.70 Log10 CFU/mL
- Viable counts in Log10 CFU/mL ([5]; 4 × MIC, 24 h): <1 Log10 CFU/mL
- Viable counts in Log10 CFU/mL ([5]; 4 × MIC, 0 h): 5.39 Log10 CFU/mL
